Measured values taken from patent publication EP4470536A1, “COMPOUND FOR USE IN TREATING FIBRODYSPLASIA OSSIFICANS PROGRESSIVA (FOP)” (Queen's University At Kingston, priority 2023, dated 2024).

Tests used:
[1] = Mapping a therapeutic window (ED50 versus MTD); assay type: in vivo; conditions: QD, own data compiled with mined literature data
Source text: For both palovarotene and compound 1 efficacy and toxicity were correlated to the pharmacokinetic parameters AUC (area under the curve), Cmax (maximum concentration detected following compound administration), and duration above EC50/IC50.This illustrated that efficacy was best predicted by duration above the EC50/IC50 (effective concentration for 50% response (in the case of palovarotene), or for 50% inhibition (in the case of compound 1)), whereas toxicity was best predicted by Cmax. […] For palovarotene, efficacy data from Example 7 and toxicity data from Example 8 above were compiled with mined data from the following publications: • Lindborg et al (2018). "Cartilage-derived retinoic acid-sensitive protein (CD-RAP): A stage-specific biomarker of heterotopic endochondral ossification (HEO) in fibrodysplasia ossificans progressiva (FOP)." Bone 109: 153-157. • Chakkalakal, S. A., et al. (2016). "Palovarotene Inhibits Heterotopic Ossification and Maintains Limb Mobility and Growth in Mice With the Human ACVR1(R206H) Fibrodysplasia Ossificans Progressiva (FOP) Mutation." J Bone Miner Res 31(9): 1666-1675. • Inubushi, T., et al. (2018). "Palovarotene Inhibits Osteochondroma Formation in a Mouse Model of Multiple Hereditary Exostoses." J Bone Miner Res 33(4): 658-666. • Lees-Shepard, J. B., et al. (2018). […] "Potent inhibition of heterotopic ossification by nuclear retinoic acid receptor-gamma agonists." Nat Med 17(4): 454-460.

ectopic bone formation = experiment: Surgical mouse model of heterotopic ossification (rhBMP2-soaked collagen disk), micro-CT; assay type: in vivo, CD-1 mouse; conditions: Day 14
Protocol: Heterotopic ossification (HO) driven by Bone Morphogenetic Protein (BMP) signaling has been used as a surrogate model for testing the effectiveness of drugs for treating Fibrodysplasia Ossificans Progressiva (FOP) (see, for example, Shimono K., et al. (2011). Nat Med 17, 454-460.). Collagen disks of 1mm in diameter were punched from a thin collagen foam matrix (Avitene™ Ultrafoam™ Collagen Hemostat product #1050050 lot #WBDP0038, from BD, Franklin Lakes, NJ, USA). Disks were impregnated with 1µg total of recombinant human BMP-2 (GenScript, Piscataway, NJ, USA, catalog #Z02913, lot #P50031712) on the day of surgery (5µl of 200ng/µL BMP-2, reconstituted in 20mM acetic acid solution). The rhBMP2-soaked collagen disk was surgically implanted into a small pocket made in the left gastrocnemius muscle of a 6-8 week-old male CD-1 mouse. Beginning on the day following surgery, mice were administered varying doses of compound 1 by oral gavage once daily (QD) or twice daily (every 12h; BID) for 13 days. Doses administered were: vehicle (Corn oil, QD (5M) and BID (3M) dosing or 3% DMSO in Corn oil (2M)), compound 1 18 mg/kg BID, 18 mg/kg QD, 6 mg/kg BID, 4.5 mg/kg BID, and 2 mg/kg BID (6M per group). Palovarotene high and low doses were used as comparators (1.76 mg/kg (4M) and 0.88 mg/kg QD (6M)). The palovarotene high and low doses were selected based on a study for palovarotene (Inubushi, T., et al. (2018). "Palovarotene Inhibits Osteochondroma Formation in a Mouse Model of Multiple Hereditary Exostoses." J Bone Miner Res 33(4): 658-666.), using oral treatment of mice. The inventors also verified the dose selection based on pharmacokinetic (PK) data generated in-house for palovarotene IP (intraperitoneal) and PO (oral) treatment by using the doses for IP treatment from Lees-Shepard, J. B., et al. (2018).
At the study endpoint (Day 14: 16-30 hours after final compound treatment) left hindlimbs were removed and submitted to micro-CT (micro-computed tomography) imaging. Using this preclinical surgical model, the amount of resulting ectopic bone formation after 14 days was visualized for each of the treatment groups (Figure 6). The highly enhancing regions seen within the gastrocnemius muscle corresponded to the amount of ectopic bone formation generated at the site of collagen disk implantation, following 14 days of vehicle or drug treatment.
The hindlimbs obtained in Example 6 above were submitted to micro-CT imaging. CT images were acquired using a VECTor^4CT pre-clinical scanner (MILabs B.V., Utrecht, Netherlands) equipped with a cone beam X-ray CT system. Scans were carried out with an acceleration voltage of 50 kVp and an X-ray tube current of 430 µA in accurate focus mode to obtain 3600 projections over a 360° scan. With a 40 ms exposure time per step, the total scan procedure took about 5 minutes with an estimated radiation dose of 3077 mGy. CT images were consequently processed using MILabs reconstruction software implementing a voxel size of 20 µm and a Hann projection filter of 25 µm to generate 3-dimensional CT images. For quantification, CT images were converted to DICOM® files using PMOD 3.9 software (PMOD Technologies Ltd., Zurich, Switzerland) for rendering using RadiAnt DICOM Viewer 4.2 software (Medixant, Poznań, Poland). The region-of-interest for all hindlimbs, reconstructed from DICOM files, was defined by outlining sites of ectopic ossification. Analysis of total ectopic bone volume was conducted via automated processes using the AnalyzePro software with the Bone Microarchitecture Analysis (BMA) add-on (AnalyzeDirect, Overland Park, Kansas). This software generates bone volume measurements from the defined area, as described by Bouxsein et al (2010). Journal of Bone and Mineral Research, 25(7), 1468-1486. Using this preclinical surgical model, the ability of compound 1 to inhibit HO (percentage from vehicle), as compared to palovarotene, was assessed and is shown in Figure 7 and in Table 1 below.

## CC1(C)CCC(C)(C)c2cc(Cn3cccn3)c(/C=C/c3ccc(C(=O)O)cc3)cc21 [Palovarotene, palovarotene, reference compound]
[1]; Mus musculus
  ED50: 0.3 mg/kg
[1]; mouse, in vivo
  MTD: 0.285 mg/kg
Ectopic bone formation; 0.88mg/kg
  Mean bone volume (mm^3): 1.985 mm^3
  percent change in HO volume from vehicle mean (%): +2.5%
Ectopic bone formation; 1.76mg/kg QD
  Mean bone volume (mm^3): 0.615 mm^3
  percent change in HO volume from vehicle mean (%): -68.2%
